Article PMC5912973 (ChemMedChem, 2018)
Where two headings read alike, the source gives them in different places.

Legend:
wild-type HIV-1NL4-3 = experiment: Antiviral p24 assay in MT-4 cells, wild-type HIV-1NL4-3; assay type: cell-based
HIVDRV^RP20 = experiment: microbe, parasite or virus in culture; assay type: cell-based, HIV-1; settings: for fold change of IC50 relative to HIV-1NL4-3: HIVDRV^RP20 vs wild type
HIVDRV^RP30 = experiment: microbe, parasite or virus in culture; assay type: cell-based, HIV-1; settings: for fold change of IC50 relative to HIV-1NL4-3: HIVDRV^RP30 vs wild type
HIVDRV^RP51 = experiment: microbe, parasite or virus in culture; assay type: cell-based, HIV-1; settings: for fold change of IC50 relative to HIV-1NL4-3: HIVDRV^RP51 vs wild type
HIVSQV-5 μM = experiment: microbe, parasite or virus in culture; assay type: cell-based, HIV-1
HIVIDV-5 μM = experiment: microbe, parasite or virus in culture; assay type: cell-based, HIV-1
HIVNFV-5 μM = experiment: microbe, parasite or virus in culture; assay type: cell-based, HIV-1
HIVAPV-5 μM = experiment: microbe, parasite or virus in culture; assay type: cell-based, HIV-1
HIVLPV-5 μM = experiment: microbe, parasite or virus in culture; assay type: cell-based, HIV-1
HIVATV-5 μM = experiment: microbe, parasite or virus in culture; assay type: cell-based, HIV-1
HIVTPV-15 μM = experiment: microbe, parasite or virus in culture; assay type: cell-based, HIV-1
HIV-1 protease = HIV-1 protease (Human immunodeficiency virus type 1 group M subtype B, UniProt P04585); experiment: HIV-1 protease inhibitory activity, assay protocol of Toth and Marshall; assay type: biochemical; settings: as printed in text or footnote
HIVLAI = experiment: Antiviral activity in MT-2 human T-lymphoid cells exposed to HIVLAI; assay type: cell-based, HIV-1; settings: MT-2/HIVLAI
[1] = biological target: dimerization of HIV-1 protease subunits (Human immunodeficiency virus type 1 group M subtype B, UniProt P12497); experiment: FRET-based HIV-1 expression assay of protease dimerization in COS-7 cells; assay type: cell-based
[2] = brain concentration 32.6 nM at 360 min; ref [23]; cited from earlier work
[3] = read-out: IC50 ± SD, MT-4 cells, HIVNL4-3 WT, p24 assay
[4] = read-out: IC50 ± SD, MT-4 cells, HIVDRV^RP20, p24 assay
[5] = read-out: IC50 ± SD, MT-4 cells, HIVDRV^RP30, p24 assay
[6] = read-out: IC50 ± SD, MT-4 cells, HIVDRV^RP51, p24 assay
[7] = read-out: Mean IC50 ± SD, MT-4 cells, HIVATV-5 μM, p24 assay
[8] = Human immunodeficiency virus 1, MT4, read-out: IC50 ± SD
[9] = Human immunodeficiency virus 1, MT4, read-out: Mean IC50 ± SD

COC(=O)N[C@H](C(=O)N[C@@H](Cc1ccccc1)[C@@H](O)CN(Cc1ccc(-c2ccccn2)cc1)NC(=O)[C@@H](NC(=O)OC)C(C)(C)C)C(C)(C)C [ATV]
IC50 (wild-type HIV-1NL4-3; [3]): 5.2 ± 0.3 nM | fold change of IC50 relative to HIV-1NL4-3 (HIVDRV^RP20): > 192 fold | IC50 (HIVDRV^RP20; [4]): > 1000 nM | fold change of IC50 relative to HIV-1NL4-3 (HIVDRV^RP30): > 192 fold | IC50 (HIVDRV^RP30; [5]): > 1000 nM | fold change of IC50 relative to HIV-1NL4-3 (HIVDRV^RP51): > 192 fold | IC50 (HIVDRV^RP51; [6]): > 1000 nM | fold-change of IC50 vs HIVNL4-3 WT (HIVSQV-5 μM; HIVSQV-5 μM): 105 fold | IC50 (HIVSQV-5 μM; read-out: Mean IC50 ± SD, MT-4 cells, HIVSQV-5 μM, p24 assay): 548 ± 177 nM | fold-change of IC50 vs HIVNL4-3 WT (HIVIDV-5 μM; HIVIDV-5 μM): 11 fold | IC50 (HIVIDV-5 μM; read-out: Mean IC50 ± SD, MT-4 cells, HIVIDV-5 μM, p24 assay): 59 ± 13 nM | fold-change of IC50 vs HIVNL4-3 WT (HIVNFV-5 μM; HIVNFV-5 μM): 3.7 fold | IC50 (HIVNFV-5 μM; read-out: Mean IC50 ± SD, MT-4 cells, HIVNFV-5 μM, p24 assay): 19 ± 1 nM | fold-change of IC50 vs HIVNL4-3 WT (HIVAPV-5 μM; HIVAPV-5 μM): 0.5 fold | IC50 (HIVAPV-5 μM; read-out: Mean IC50 ± SD, MT-4 cells, HIVAPV-5 μM, p24 assay): 2.4 ± 0.7 nM | fold-change of IC50 vs HIVNL4-3 WT (HIVLPV-5 μM; HIVLPV-5 μM): 7 fold | IC50 (HIVLPV-5 μM; read-out: Mean IC50 ± SD, MT-4 cells, HIVLPV-5 μM, p24 assay): 36 ± 9 nM | fold-change of IC50 vs HIVNL4-3 WT (HIVATV-5 μM; HIVATV-5 μM): > 192 fold | IC50 (HIVATV-5 μM; [7]): > 1000 nM | fold-change of IC50 vs HIVNL4-3 WT (HIVTPV-15 μM; HIVTPV-15 μM): > 192 fold | IC50 (HIVTPV-15 μM; read-out: Mean IC50 ± SD, MT-4 cells, HIVTPV-15 μM, p24 assay): > 1000 nM

CC(C)CN(C[C@@H](O)[C@H](Cc1ccccc1)NC(=O)O[C@H]1CO[C@H]2OCC[C@H]21)S(=O)(=O)c1ccc(N)cc1 [DRV, darunavir]
IC50 (wild-type HIV-1NL4-3; [8]): 3.7 ± 0.7 nM | IC50 (HIVDRV^RP20; [8]): 60 ± 6 nM | IC50 (HIVDRV^RP30; [8]): 134 ± 43 nM | IC50 (HIVDRV^RP51; [8]): 4670 ± 1260 nM | IC50 (HIVSQV-5 μM; [9]): 22 ± 6 nM | IC50 (HIVIDV-5 μM; [9]): 42 ± 1 nM | IC50 (HIVNFV-5 μM; [9]): 6.1 ± 0.8 nM | IC50 (HIVAPV-5 μM; [9]): 43 ± 22 nM | IC50 (HIVLPV-5 μM; [9]): 275 ± 64 nM | IC50 (HIVATV-5 μM; [9]): 26 ± 1 nM | IC50 (HIVTPV-15 μM; [9]): 41 ± 3 nM

CC(C)CN(C[C@@H](O)[C@H](Cc1cc(F)cc(F)c1)NC(=O)O[C@H]1C2CO[C@H]3OC[C@@H]1C3C2)S(=O)(=O)c1ccc(N)cc1 (stereo partly drawn) [Inhibitor 4, (3S,7 aS,8S)-Hexahydro-4H-3,5-methanofuro[2,3-b]pyran-8-yl((2S,3R)-4-((4-amino-N-isobutylphenyl)sulfonamido)-1-(3,5-difluorophenyl)-3-hydroxybutan-2-yl)carbamate]
Ki (HIV-1 protease): 0.004 nM | IC50 (wild-type HIV-1NL4-3; [3]): 5.9 ± 0.4 nM | fold change of IC50 relative to HIV-1NL4-3 (HIVDRV^RP20): 4 fold | IC50 (HIVDRV^RP20; [4]): 24 ± 9 nM | fold change of IC50 relative to HIV-1NL4-3 (HIVDRV^RP30): 1.9 fold | IC50 (HIVDRV^RP30; [5]): 11 ± 13 nM | fold change of IC50 relative to HIV-1NL4-3 (HIVDRV^RP51): 82 fold | IC50 (HIVDRV^RP51; [6]): 486 ± 52 nM

CC(C)CN(C[C@@H](O)[C@H](Cc1cc(F)cc(F)c1)NC(=O)O[C@H]1C2CO[C@H]3OC[C@@H]1C3C2)S(=O)(=O)c1ccc2nc(NC3CC3)sc2c1 (stereo partly drawn) [Inhibitor 5, (3S,7 aS,8S)-Hexahydro-4H-3,5-methanofuro[2,3-b]pyran-8-yl((2S,3R)-4-((2-(cyclopropylamino)-N-isobutylbenzo[d]thiazole)-6-sulfonamido)-1-(3,5-difluorophenyl)-3-hydroxybutan-2-yl)carbamate]
Ki (HIV-1 protease): 0.014 nM | fold potency enhancement of antiviral IC50 over DRV (HIVLAI; vs DRV): more than 150 fold | fold improvement of antiviral IC50 over compound 4 (HIVLAI; vs compound 4): 100 fold | fold more potent than inhibitor 3 (antiviral) (HIVLAI; vs inhibitor 3): over 15 fold | IC50 (wild-type HIV-1NL4-3; [3]): 0.016 ± 0.017 nM | fold change of IC50 relative to HIV-1NL4-3 (HIVDRV^RP20): 0.1 fold | IC50 (HIVDRV^RP20; [4]): 0.0016 ± 0.002 nM | fold change of IC50 relative to HIV-1NL4-3 (HIVDRV^RP30): 1 fold | IC50 (HIVDRV^RP30; [5]): 0.015 ± 0.015 nM | fold change of IC50 relative to HIV-1NL4-3 (HIVDRV^RP51): 175 fold | IC50 (HIVDRV^RP51; [6]): 2.8 ± 0.2 nM | fold-change of IC50 vs HIVNL4-3 WT (HIVSQV-5 μM; HIVSQV-5 μM): 0.01 fold | fold-change of IC50 vs HIVNL4-3 WT (HIVIDV-5 μM; HIVIDV-5 μM): 0.02 fold | fold-change of IC50 vs HIVNL4-3 WT (HIVNFV-5 μM; HIVNFV-5 μM): 0.04 fold | fold-change of IC50 vs HIVNL4-3 WT (HIVAPV-5 μM; HIVAPV-5 μM): 0.0006 fold | fold-change of IC50 vs HIVNL4-3 WT (HIVLPV-5 μM; HIVLPV-5 μM): 0.0002 fold | fold-change of IC50 vs HIVNL4-3 WT (HIVATV-5 μM; HIVATV-5 μM): 1.3 fold | IC50 (HIVATV-5 μM; [7]): 0.02 ± 0.01 nM | fold-change of IC50 vs HIVNL4-3 WT (HIVTPV-15 μM; HIVTPV-15 μM): 0.02 fold | concentration at which dimerization of protease subunits is blocked [1]: 0.1 nM | brain drug level relative to its IC50 value [2]: ~1880 fold
